# Source: PubChem BioAssay (NCI)
#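 All cell lines were grown in 96-well plates and treated with compound for 48 hours. GI50 is the concentration that inhibits growth by half. TGI denotes the concentration required for complete inhibition of growth.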
# Legend:
# Experiment in all cases: growth of human tumour cells (NCI), 48 h
# KM12 colon = test system: KM12 colon
# LOX IMVI melanoma = test system: LOX IMVI melanoma
# PC-3 prostate = test system: PC-3 prostate
# HCT-116 colon = test system: HCT-116 colon
# M14 melanoma = test system: M14 melanoma
# A498 renal = test system: A498 renal
# TK-10 renal = test system: TK-10 renal
# U251 CNS = test system: U251 CNS
# UACC-257 melanoma = test system: UACC-257 melanoma
# HOP-92 NSCLC = test system: HOP-92 NSCLC
# MDA-MB-231 breast = test system: MDA-MB-231 breast
# CAKI-1 renal = test system: CAKI-1 renal
# NCI-H23 lung = test system: NCI-H23 lung
# HOP-62 NSCLC = test system: HOP-62 NSCLC
# OVCAR-4 ovarian = test system: OVCAR-4 ovarian
# SK-OV-3 ovarian = test system: SK-OV-3 ovarian
# OVCAR-8 ovarian = test system: OVCAR-8 ovarian
# NCI-H226 lung = test system: NCI-H226 lung
# HCC-2998 colon = test system: HCC-2998 colon
# SK-MEL-28 melanoma = test system: SK-MEL-28 melanoma
# UACC-62 melanoma = test system: UACC-62 melanoma
# SW-620 colon = test system: SW-620 colon
# OVCAR-5 ovarian = test system: OVCAR-5 ovarian
# MOLT-4 leukemia = test system: MOLT-4 leukemia
# HCT-15 colon = test system: HCT-15 colon
# HS 578T breast = test system: HS 578T breast
# ACHN renal = test system: ACHN renal
# NCI/ADR-RES ovarian = test system: NCI/ADR-RES ovarian
# A549 NSCLC = test system: A549 NSCLC
# SF-268 CNS = test system: SF-268 CNS
# CCRF-CEM leukemia = test system: CCRF-CEM leukemia
# RXF 393 renal = test system: RXF 393 renal
# OVCAR-3 ovarian = test system: OVCAR-3 ovarian
# 786-0 renal = test system: 786-0 renal
# COLO 205 colon = test system: COLO 205 colon
# MDA-MB-435 = test system: MDA-MB-435
# RPMI-8226 leukemia = test system: RPMI-8226 leukemia
# NCI-H460 lung = test system: NCI-H460 lung
# SF-295 CNS = test system: SF-295 CNS
# SNB-19 CNS = test system: SNB-19 CNS
# K-562 leukemia = test system: K-562 leukemia
# SNB-75 CNS = test system: SNB-75 CNS
# MCF7 breast = test system: MCF7 breast
# HT29 colon = test system: HT29 colon
# SK-MEL-5 melanoma = test system: SK-MEL-5 melanoma
# SK-MEL-2 melanoma = test system: SK-MEL-2 melanoma
# SR leukemia = test system: SR leukemia
# HL-60(TB) leukemia = test system: HL-60(TB) leukemia
structure (smiles),measurement,setting,value
COc1cc2c3c(n(C)c(=O)c2cc1OC)-c1cc2c(cc1/C3=C\CCCCN1C(=O)c3ccccc3C1=O)OCO2,GI50,KM12 colon,59.3 µM
same,TGI,KM12 colon,> 100 µM
same,GI50,LOX IMVI melanoma,10.7 µM
same,TGI,LOX IMVI melanoma,22.5 µM
same,GI50,PC-3 prostate,10.5 µM
same,TGI,PC-3 prostate,51.6 µM
same,GI50,HCT-116 colon,22.8 µM
same,TGI,HCT-116 colon,> 100 µM
same,GI50,M14 melanoma,38.4 µM
same,TGI,M14 melanoma,> 100 µM
same,GI50,A498 renal,2.79 µM
same,TGI,A498 renal,37.1 µM
same,GI50,TK-10 renal,1.11 µM
same,TGI,TK-10 renal,29.1 µM
same,GI50,U251 CNS,10.6 µM
same,TGI,U251 CNS,25.8 µM
same,GI50,UACC-257 melanoma,23.4 µM
same,TGI,UACC-257 melanoma,> 100 µM
same,TGI,HOP-92 NSCLC,7.49 µM
same,GI50,MDA-MB-231 breast,13.3 µM
same,TGI,MDA-MB-231 breast,38.3 µM
same,GI50,CAKI-1 renal,0.686 µM
same,TGI,CAKI-1 renal,35.4 µM
same,GI50,NCI-H23 lung,1.34 µM
same,TGI,NCI-H23 lung,19.2 µM
same,GI50,HOP-62 NSCLC,17.4 µM
same,TGI,HOP-62 NSCLC,70.4 µM
same,GI50,OVCAR-4 ovarian,26 µM
same,TGI,OVCAR-4 ovarian,> 100 µM
same,GI50,SK-OV-3 ovarian,13.5 µM
same,TGI,SK-OV-3 ovarian,45.7 µM
same,GI50,OVCAR-8 ovarian,17.1 µM
same,TGI,OVCAR-8 ovarian,> 100 µM
same,GI50,NCI-H226 lung,12.8 µM
same,TGI,NCI-H226 lung,31.4 µM
same,GI50,HCC-2998 colon,12.2 µM
same,TGI,HCC-2998 colon,58.7 µM
same,GI50,SK-MEL-28 melanoma,> 100 µM
same,TGI,SK-MEL-28 melanoma,> 100 µM
same,GI50,UACC-62 melanoma,6.01 µM
same,TGI,UACC-62 melanoma,37.6 µM
same,GI50,SW-620 colon,7 µM
same,TGI,SW-620 colon,> 100 µM
same,GI50,OVCAR-5 ovarian,74 µM
same,TGI,OVCAR-5 ovarian,> 100 µM
same,GI50,MOLT-4 leukemia,2.07 µM
same,TGI,MOLT-4 leukemia,13.4 µM
same,GI50,HCT-15 colon,14.8 µM
same,TGI,HCT-15 colon,50.5 µM
same,GI50,HS 578T breast,26.5 µM
same,TGI,HS 578T breast,> 100 µM
same,GI50,ACHN renal,1.8 µM
same,TGI,ACHN renal,10.9 µM
same,GI50,NCI/ADR-RES ovarian,24.1 µM
same,TGI,NCI/ADR-RES ovarian,> 100 µM
same,GI50,A549 NSCLC,7.03 µM
same,TGI,A549 NSCLC,27.9 µM
same,GI50,SF-268 CNS,9.12 µM
same,TGI,SF-268 CNS,> 100 µM
same,GI50,CCRF-CEM leukemia,9.71 µM
same,TGI,CCRF-CEM leukemia,43.7 µM
same,GI50,RXF 393 renal,56.5 µM
same,TGI,RXF 393 renal,> 100 µM
same,GI50,OVCAR-3 ovarian,38.1 µM
same,TGI,OVCAR-3 ovarian,> 100 µM
same,GI50,786-0 renal,16 µM
same,TGI,786-0 renal,> 100 µM
same,GI50,COLO 205 colon,6.28 µM
same,TGI,COLO 205 colon,> 100 µM
same,GI50,MDA-MB-435,> 100 µM
same,TGI,MDA-MB-435,> 100 µM
same,GI50,RPMI-8226 leukemia,8.5 µM
same,TGI,RPMI-8226 leukemia,> 100 µM
same,GI50,NCI-H460 lung,3.52 µM
same,TGI,NCI-H460 lung,43.7 µM
same,GI50,SF-295 CNS,11 µM
same,TGI,SF-295 CNS,68.1 µM
same,GI50,SNB-19 CNS,36.6 µM
same,TGI,SNB-19 CNS,> 100 µM
same,GI50,K-562 leukemia,23.4 µM
same,TGI,K-562 leukemia,> 100 µM
same,GI50,SNB-75 CNS,28.5 µM
same,TGI,SNB-75 CNS,> 100 µM
same,GI50,MCF7 breast,10.8 µM
same,TGI,MCF7 breast,53.9 µM
same,GI50,HT29 colon,18 µM
same,TGI,HT29 colon,> 100 µM
same,GI50,SK-MEL-5 melanoma,13 µM
same,TGI,SK-MEL-5 melanoma,39.4 µM
CO/N=C(/C)c1ccc(NC(=O)CSc2nnc(-c3ccncc3)n2-c2ccccc2)cc1,GI50,KM12 colon,> 100 µM
same,TGI,KM12 colon,> 100 µM
same,GI50,HCT-116 colon,3.43 µM
same,TGI,HCT-116 colon,> 100 µM
same,GI50,M14 melanoma,> 100 µM
same,TGI,M14 melanoma,> 100 µM
same,GI50,A498 renal,2.15 µM
same,TGI,A498 renal,8.08 µM
same,GI50,U251 CNS,3.22 µM
same,TGI,U251 CNS,> 100 µM
same,GI50,HOP-92 NSCLC,2.32 µM
same,TGI,HOP-92 NSCLC,6.07 µM
same,GI50,MDA-MB-231 breast,2.57 µM
same,TGI,MDA-MB-231 breast,8.79 µM
same,GI50,NCI-H23 lung,4.24 µM
same,TGI,NCI-H23 lung,> 100 µM
same,GI50,SK-MEL-2 melanoma,11.1 µM
same,TGI,SK-MEL-2 melanoma,55.1 µM
same,GI50,SK-OV-3 ovarian,3.34 µM
same,TGI,SK-OV-3 ovarian,> 100 µM
same,GI50,SR leukemia,> 100 µM
same,TGI,SR leukemia,> 100 µM
same,GI50,HCC-2998 colon,> 100 µM
same,TGI,HCC-2998 colon,> 100 µM
same,GI50,SK-MEL-28 melanoma,> 100 µM
same,TGI,SK-MEL-28 melanoma,> 100 µM
same,GI50,SW-620 colon,> 100 µM
same,TGI,SW-620 colon,> 100 µM
same,GI50,OVCAR-5 ovarian,> 100 µM
same,TGI,OVCAR-5 ovarian,> 100 µM
same,GI50,MOLT-4 leukemia,> 100 µM
same,TGI,MOLT-4 leukemia,> 100 µM
same,GI50,HCT-15 colon,> 100 µM
same,TGI,HCT-15 colon,> 100 µM
same,GI50,HL-60(TB) leukemia,> 100 µM
same,TGI,HL-60(TB) leukemia,> 100 µM
same,GI50,CCRF-CEM leukemia,> 100 µM
same,TGI,CCRF-CEM leukemia,> 100 µM
same,GI50,RXF 393 renal,2.24 µM
same,TGI,RXF 393 renal,4.93 µM
same,GI50,COLO 205 colon,> 100 µM
same,TGI,COLO 205 colon,> 100 µM
same,GI50,RPMI-8226 leukemia,> 100 µM
same,TGI,RPMI-8226 leukemia,> 100 µM
same,GI50,K-562 leukemia,> 100 µM
same,TGI,K-562 leukemia,> 100 µM
same,GI50,HT29 colon,> 100 µM
same,TGI,HT29 colon,> 100 µM
